Data reported in patent US5656721A, “Peptide derivatives” (Sandoz Ltd., priority 1986, dated 1997).
Read-outs that look alike come from different tables or passages of the source. Blank lines part the entries; values can stand above or below the molecule they belong to. Starred links: 1 amine or outer side, 2 acyl side, 3 side chain; linkers in the order of their positions; H or OH if unused. Positions of bridges follow the written chain, without caps; N, C: chain ends. Non-standard residues stand in square brackets, D forms with d. Residues, ends and D or L forms follow the SMILES beside them. X1 = O=C([C@@H](Cc1ccccc1)N(C[C@@]1(O)OC[C@@H](O)[C@@H](O[C@H]2O[C@H](CO)[C@@H](O)[C@H](O)[C@H]2O)[C@@H]1O)[*:1])[*:2]; X3 = O=C([C@@H](Cc1ccccc1)N(C[C@@]1(O)OC[C@@H](O)[C@@H](O)[C@@H]1O)[*:1])[*:2]; X2 = O=C([C@H](CS[*:3])N(C[C@@]1(O)OC[C@@H](O)[C@@H](O)[C@@H]1O)[*:1])[*:2]; Thr(ol) = C[C@@H](O)[C@H](N)CO

How the values were obtained:
GH level in the serum [1] = type: in vivo, rats
Protocol: Male rats are decapitated and blood is collected 1 hour after administering the GH secrection inhibiting compound in several logarithmically spaced doses. The GH level in the serum is determined means of RIA. In this test, these compounds of the invention are active at doses from about 0.02 to about 30 microgram/kg s.c.

[2] = Bioavailability test, oral or intravenous administration, blood detection by radioimmunoassay; type: in vivo, dogs
Excerpt: The compounds of the invention may be compared with the unmodified peptides in standard bioavailability tests.
The compounds of the invention, for example, may be detected in the blood plasma for a longer period after administration than the unmodified peptides, as indicated in standard bioavailability experiments.
The compounds of the invention and the unmodified peptide may be administered to for example dogs in a single dose sufficient to produce a therapeutic effect by oral or intravenous administration.
Doses used are those which permit the peptide or a metabolite thereof to be detected in the blood. Detection may be effected in conventional manner, e.g. by radioimmunoassay.

[3] = Elimination through bile and urine in anaesthetized cannulated rats after s.c. administration; conditions: male, rat, in vivo, sc, 10 microgram/kg
Protocol: Additionally the compounds of the invention advantageously are eliminated to a greater extent through the kidneys. This may be observed in standard tests.
Fasted Male rats (225-375 g) are administered orally with water (50 ml/kg). After 30 minutes the animals are anaesthetized with e.g. Inactin (100 mg/kg i.p.). The bile duct and bladder are cannulated. Both V. jugularis are exposed. In one vein an infusion of glucose 5% with ethanol 1% is administered (5 ml/hr) to stimulate diuresis. The other vein is used to take blood samples (0.5 ml) every hour over 4 hours.
The compound of the invention and the unmodified peptide is administered s.c. at a dose of from about 10 to about 1000 microgram/Kg. The concentration of the compound is determined in conventional manner e.g. by RIA.
In the above test for example the following results have been obtained with the example 2 compound and octreotide at a dose of 10 microgram/kg: […]

gastric acid secretion = test: Gastric acid secretion in fasted rats with stomach fistula; type: in vivo; conditions: for duration of increased stomach pH / pH of the stomach juice reached: by stomach tube
Protocol: The activity of these compounds is observed in e.g. the following test: GH secretion inhibiting compounds of the invention are administered to fasted rats with fistula implanted in their stomach in doses from about 0.05 mg/kg to about 5 mg/kg by stomach tune. After 1 hour the fistula is opened. The stomach Juice is collected in 30 minute periods. The collected volumes are registered and the acid concentration determined.

[4] = tested on: GH (growth hormone) secretion; test: GH concentration in blood of fasted rhesus monkeys after p.o. administration; type: in vivo; conditions: for duration of GH lowering effect: p.o., example 2 at 0.1 mg/kg, lowering by at least 50 per cent
Protocol: Compounds of the invention which inhibit GH (growth hormone) secretion, especially the compounds of formula VIII, and more especially compounds of formula VIII a to f, and reduce the GH concentrations in the blood, may be tested as follows: Fasted rhesus monkeys (at least 5 monkeys) in primate chairs receive the compound of the invention in a piece of banana as vehicle. The compounds are administered at a dose of from about 0.1 mg/kg to about 10 mg/kg p.o. Blood is taken from the […] via a catheter. The GH concentration in the blood is measured by RIA (radio immunoassay).

[5] = Absorption on oral administration, plasma levels by RIA; type: in vivo, OFA rats; conditions: OFA, rat, 10 mg/kg; for level at 0.25 h: 15 mins., read-out: Rat plasma levels following oral administration, 15 mins.; for level at 0.5 h: 30 mins., read-out: Rat plasma levels following oral administration, 30 mins.; for level at 1 h: 60 mins., read-out: Rat plasma levels following oral administration, 60 mins.
Protocol: Improved absorption on oral administration may be detected for the compounds of the invention as follows:
The compound of the invention and the unmodified analogue are administered orally to OFA rats (e.g. 10 mg/kg). After definite periods of time, e.g. 15, 30 and 60 minutes, blood samples are collected, These are analysed for their drug content by e.g. RIA.

GH level in the serum [6] = test: GH-reducing activity in male rats having oestradiol implants; type: in vivo; conditions: oestradiol-implanted male rats
Protocol: The GH-reducing activity of these compounds is also observed after oral application to male rats having oestradiol implants. In this test there are relatively small variations in the GH level, The test is carried out as follows:
A loop (length 50 mm .0. 3 mm) of silastic with 50 mg of oestradiol is implanted under ether anaesthesis under the dorsal skin of male rats which have a weight of ca. 300 g. At various times (1 to 6 months later), these animals are used repeatedly for tests. The test substance is administered either s.c. or orally.
Directly before, as well as at various times after administration of the substance, ca. 0.8 ml of blood is removed from the retro-orbital plexus. It is centrifuged and the GH level in the serum is determined by RIA.

[7] = tested on: calcium level in the blood; test: Hypocalcemic activity, calcium level in the blood after i.v. administration; type: in vivo; conditions: dogs, 5 μg/kg
Excerpt: The sugar derivatives of calcitonin and of calcitonin analogues or derivatives according to the invention, more especially the derivatives of formula X reduce the calcium plasma level. Moreover, they are functional antagonists of the parathormone, and effect a positive calcium balance in the bones. The hypocalcemic activity of the new compounds may be measured in known manner, e.g. according to the method of M. Azria et al., reported in the Calcitonin 1984 Symposium, 24th October, Milan and published as "Short Communication" in "Current Clinical Practice Series" No. 42, Excerpta Medica 1986, page 104. In this method, a Ca^2+ -ion selective electrode is used, so that the content of calcium ions in the blood of young rabbits or dogs may be continuously measured. The compounds are administered i.v. at a dosage of from about 0.1 to about 10 micrograms/kg, e.g. conforming to ca. 1 international unit per kg. […]
It has for example been determined that each of the compounds of examples 37 and 38 have a duration of action that is much longer than with the unmodified peptide, when administered i.v. to dogs (5 μg/kg).

[8] = s.c., male rats, 1 hour after administration

Molecule: C[C@@H](O)[C@@H]1NC(=O)[C@H](CCCCN)NC(=O)[C@@H](Cc2c[nH]c3ccccc23)NC(=O)[C@H](Cc2ccccc2)NC(=O)[C@@H](NC(=O)[C@@H](Cc2ccccc2)NC[C@@]2(O)OC[C@@H](O)[C@@H](O)[C@@H]2O)CSSC[C@@H](C(=O)N[C@H](CO)[C@@H](C)O)NC1=O [Example 1] (H-[X3]CF[dW]KTC[Thr(ol)]; disulfide 2-7)
- ID50 (amount required to lower the GH content by 50%) (GH level in the serum [1]; rat, in vivo, sc): 0.045 microgram/kg

- elimination half-life ([2]; intravenous administration): about 2,3 hours
- blood concentration on oral administration compared with octreotide ([2]; oral administration, relative to octreotide): ten fold higher
- absolute bioavailability on the basis of the AUC, relative to octreotide ([2]; orally and intravenously administered, relative to octreotide): 5 times
- dose excreted ([3]; Percentage eliminated through Bile): 1.6%
- dose excreted ([3]; Percentage eliminated through Urine): 36%
Molecule: C[C@@H](O)[C@@H]1NC(=O)[C@H](CCCCN)NC(=O)[C@@H](Cc2c[nH]c3ccccc23)NC(=O)[C@H](Cc2ccccc2)NC(=O)[C@@H](NC(=O)[C@@H](Cc2ccccc2)NC[C@@]2(O)OC[C@@H](O)[C@@H](O[C@H]3O[C@H](CO)[C@@H](O)[C@H](O)[C@H]3O)[C@@H]2O)CSSC[C@@H](C(=O)N[C@H](CO)[C@@H](C)O)NC1=O [Example 2, N^α -[α-glucosyl(1-4)-dioxyfructosyl)-SMS] (H-[X1]CF[dW]KTC[Thr(ol)]; disulfide 2-7)
- ID50 (amount required to lower the GH content by 50%) (GH level in the serum [1]; [8]): 0.190 microgram/kg
- duration of increased stomach pH (gastric acid secretion): 3,5 hours
- pH of the stomach juice reached (gastric acid secretion): 6-8 pH
- activity relative to cimetidine (gastric acid secretion; compared with cimetidine): at least 60 times
- lowering of GH secretion ([4]; 0.1 mg/kg p.o.): at least 50 per cent
- duration of GH lowering effect [4]: > 10 h

Molecule: C[C@@H](O)[C@@H]1NC(=O)[C@H](CCCCN)NC(=O)[C@@H](Cc2c[nH]c3ccccc23)NC(=O)[C@H](Cc2ccccc2)NC(=O)[C@@H](NC(=O)[C@@H](Cc2ccccc2)NC(=O)[C@H]2OC(O)[C@H](O)[C@@H](O)[C@@H]2O)CSSC[C@@H](C(=O)N[C@H](CO)[C@@H](C)O)NC1=O (stereo partly shown) [Example 21]
- ID50 (amount required to lower the GH content by 50%) (GH level in the serum [1]; rat, in vivo, sc): 0.3 microgram/kg

- level at 0.25 h [5]: 11.8 ng/mL
- level at 0.5 h [5]: 6.98 ng/mL
- level at 1 h [5]: 3.98 ng/mL
Molecule: CC[C@H](C)[C@@H]1NC(=O)[C@H](Cc2ccc(O)cc2)NC(=O)[C@@H](NC[C@@]2(O)OC[C@@H](O)[C@@H](O)[C@@H]2O)CSSC[C@@H](C(=O)N2CCC[C@H]2C(=O)N[C@@H](CC(C)C)C(=O)NCC(N)=O)NC(=O)[C@H](CC(N)=O)NC(=O)[C@H](CCC(N)=O)NC1=O [Example 44, [N-deoxy-fructosyl-Cys^1]-oxytocin] (H-[X2]YIQNCPLG-NH2; disulfide 1-6; C-terminus assumed)

Molecule: C[C@@H](O)[C@@H]1NC(=O)[C@H](CCCCN)NC(=O)[C@@H](Cc2c[nH]c3ccccc23)NC(=O)[C@H](Cc2ccccc2)NC(=O)[C@@H](NC(=O)[C@H](N)Cc2ccccc2)CSSC[C@@H](C(=O)N[C@H](CO)[C@@H](C)O)NC1=O [Octreotide, reference compound]
- half-life ([2]; dog, blood, intravenous administration, read-out: elimination half-life (converted)): ~30 min
- dose excreted ([3]; rats, 10 microgram/kg s.c., read-out: Percentage eliminated through Bile): 22%
- dose excreted ([3]; rats, 10 microgram/kg s.c., read-out: Percentage eliminated through Urine): 19%
- duration of increased stomach pH (gastric acid secretion): 2 hours
- pH of the stomach juice reached (gastric acid secretion): 6-7 pH
- duration of GH lowering effect [4]: 5 h
- ID50 p.o. (GH level in the serum [6]): 1400 microgram/kg

Molecule: C[C@H](N)C(=O)NCC(=O)N[C@H]1CSSC[C@@H](C(=O)O)NC(=O)[C@H](CO)NC(=O)[C@H]([C@@H](C)O)NC(=O)[C@H](Cc2ccccc2)NC(=O)[C@H]([C@@H](C)O)NC(=O)[C@H](CCCCN)NC(=O)[C@H](Cc2c[nH]c3ccccc23)NC(=O)[C@H](Cc2ccccc2)NC(=O)[C@H](Cc2ccccc2)NC(=O)[C@H](CC(N)=O)NC(=O)[C@H](CCCCN)NC1=O [natural stomatostatin, reference compound]
- ID50 (amount required to lower the GH content by 50%) (GH level in the serum [1]; [8]): 93 microgram/kg

- level at 0.25 h [5]: 7.53 ng/mL
- level at 0.5 h [5]: 3.6 ng/mL
- level at 1 h [5]: 2.55 ng/mL
Molecule: CC[C@H](C)[C@@H]1NC(=O)[C@H](Cc2ccc(O)cc2)NC(=O)[C@@H](N)CSSC[C@@H](C(=O)N2CCC[C@H]2C(=O)N[C@@H](CC(C)C)C(=O)NCC(N)=O)NC(=O)[C@H](CC(N)=O)NC(=O)[C@H](CCC(N)=O)NC1=O [oxytocin, reference compound]

Molecule: N^α -isocaproyl-des(1-4)-[Ala^7,Nε-(1-deoxyfructosyl)-Lys^11,1 8 ]salmon Calcitonin [Example 37]
- duration of action compared with the unmodified peptide [7]: much longer
- reduction in the calcium level in the blood after 6 hours [7]: still as pronounced as after 3 hours

Molecule: N^α -isocaproyl-des-(1-4)-[Ala^7, N^κ -(α-D-glucosyl-(1-4)-deoxyfructosyl)-Lys^11,18 ]salmon Calcitonin [Example 38]
- duration of action compared with the unmodified peptide [7]: much longer
- reduction in the calcium level in the blood after 6 hours [7]: still as pronounced as after 3 hours
